The assay deals with protein deposits (i.e., lysozyme) from Group IV lenses. Description: In vitro cleaning efficacy: removal of lysozyme deposits from soiled contact lenses. The method, then: The formulations shown in Table 1 below were tested to evaluate the ability of the multifunctional surfactants described above to remove protein deposits (i.e., lysozyme) from Group IV lenses. The cleaning performance was compared to conventional cleaning agents. The test procedures are described below, and the cleaning results are set forth at the bottom of Table 1.
The materials and methods utilized in the evaluation were as follows: 1.311 g of monobasic sodium phosphate (monohydrate), 5.74 g of dibasic sodium phosphate (anhydrous), and 9.0 g of sodium chloride were dissolved in deionized water and the volume was brought to 1000 mL with deionized water after completely dissolving the solutes and adjusting pH (if needed). The final concentrations of sodium phosphate and sodium chloride were 0.05 M and 0.9 w/v %, respectively. The final pH was 7.4.
A 1.0-mg/mL lysozyme solution was prepared by dissolving 500 mg of lysozyme in 500-mL of phosphate buffered saline.
A lens extraction solution was prepared by mixing 1.0 mL of trifluoroacetic acid with 500-mL of acetonitrile and 500 mL of deionized water. The pH of the solution ranged from 1.5 to 2.0.
Each lens was immersed with 5 mL of lysozyme solution in a Wheaton glass sample vial. The vial was closed with a plastic snap cap and incubated in a constant temperature water bath at 37° C. for 24 hours. After incubation, the deposited lens was removed from the vial and rinsed by dipping into three consecutive beakers containing 50 mL of deionized water to remove any excess of the deposition solution. The lens was then blotted gently with a laboratory towel (Kaydry EX-L, from Kimberly-Clark). These lenses were used as a soiled lenses for the evaluation of cleaning efficacy of the test solutions.
The lens was immersed in a Wheaton glass sample vial containing 5 mL of UNISOL® 4 saline solution. The vial was closed with a plastic snap cap held secure with a metal clasp to prevent the cap from popping off during the thermal treatment. […]
Each soiled lens was soaked and shaken with 5 mL of the test solution in a scintillation vial at room temperature for 12 hours. […] The clean lenses were then subjected to the extraction procedure described below, and the amount of lysozyme present in the soaking solutions was measured with a fluorescence spectrophotometer. […]
A quantitative determination of the amount of lysozyme in the lens extract solution and lens soaking solutions was carried out by a fluorescence spectrophotometer interfaced with an autosampler and a computer. The fluorescence intensity of a 2 mL aliquot from each sample solution was measured by setting the excitation/emission wavelength at 280 nm/346 nm with excitation/emission slits of 2.5 nm/10 nm, respectively, and the sensitivity of the photomultiplier was set at 950 volts. […]

The values below come from patent US6995123B2, “Use of multifunctional surface active agents to clean contact lenses” (Alcon, Inc., priority 2002, dated 2006).

Structures are written as SMILES.

As for `CCCCCCCCCCCC(=O)N(CCN(CC(=O)[O-])CC(=O)[O-])CC(=O)[O-].[Na+].[Na+].[Na+]` [LED3A, lauroyl ethylene diaminetriacetate], the cleaning efficacy (LED3A 0.03% in borate buffered vehicle containing 0.6% sodium citrate) is recorded as 29.5%, the cleaning efficacy (LED3A 0.075% in borate buffered vehicle containing 0.6% sodium citrate) stood at 47.5%, the cleaning efficacy (LED3A 0.1% in borate buffered vehicle containing 0.6% sodium citrate) amounted to 56.0% and the cleaning efficacy (LED3A 0.2% in borate buffered vehicle containing 0.6% sodium citrate) came out at 60.2%.
